# Assay results: ChEMBL document CHEMBL2074083, “Functional characterization of SLCO1B1 (OATP-C) variants, SLCO1B1*5, SLCO1B1*15 and SLCO1B1*15+C1007G, by using transient expression systems of HeLa and HEK293 cells” (Pharmacogenet Genomics, 2005)
# T1: OATP1B1 (Homo sapiens, UniProt Q9Y6L6)
# T1 sequence (Q9Y6L6 whole entry): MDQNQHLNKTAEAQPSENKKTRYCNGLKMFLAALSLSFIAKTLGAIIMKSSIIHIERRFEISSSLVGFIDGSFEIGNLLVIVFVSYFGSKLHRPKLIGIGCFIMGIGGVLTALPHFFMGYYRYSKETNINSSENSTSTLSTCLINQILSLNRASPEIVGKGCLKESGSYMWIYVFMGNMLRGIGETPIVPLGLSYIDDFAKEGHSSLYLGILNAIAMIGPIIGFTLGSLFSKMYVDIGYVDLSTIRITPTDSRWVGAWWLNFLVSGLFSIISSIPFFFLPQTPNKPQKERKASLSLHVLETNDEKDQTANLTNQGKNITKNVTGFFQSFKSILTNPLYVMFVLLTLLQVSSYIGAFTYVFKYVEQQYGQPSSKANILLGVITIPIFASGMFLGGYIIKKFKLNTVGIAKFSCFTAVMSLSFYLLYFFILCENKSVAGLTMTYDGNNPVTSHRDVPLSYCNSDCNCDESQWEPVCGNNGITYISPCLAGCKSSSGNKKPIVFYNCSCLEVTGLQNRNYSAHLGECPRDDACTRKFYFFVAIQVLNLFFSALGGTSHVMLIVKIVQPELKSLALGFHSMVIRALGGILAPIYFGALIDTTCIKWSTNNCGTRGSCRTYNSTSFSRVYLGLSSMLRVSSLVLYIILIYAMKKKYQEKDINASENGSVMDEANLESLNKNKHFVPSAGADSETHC
# T2: Solute carrier organic anion transporter family member 1B1 (Homo sapiens, UniProt Q9Y6L6)
# T2 sequence (Q9Y6L6 whole entry): T1 sequence (Q9Y6L6 whole entry)
# B1: Solute carrier organic anion transporter family member 1B1 (Homo sapiens) (protein)
# chain: T1 sequence (Q9Y6L6 whole entry)
# Key:
# Type in all cases: functional, cell-based
# OATP1B1 = biological target: T1, OATP1B1; assay: (§1) TP_TRANSPORTER: uptake in OATP1B1-expressing HEK293 cells; details: HEK293 cells that express OATP1B1
# [1] = biological target: T2, Solute carrier organic anion transporter family member 1B1; assay: as §1; details: hek293
# [2] = substrate: CC[C@H](C)C(=O)O[C@H]1C[C@H](O)C=C2C=C[C@H](C)[C@H](CC[C@@H](O)C[C@@H](O)CC(=O)O)[C@H]21; assay: as §1
molecule,measurement,setting,value
CC(C)c1c(C(=O)Nc2ccccc2)c(-c2ccccc2)c(-c2ccc(F)cc2)n1CC[C@@H](O)C[C@@H](O)CC(=O)O [ATORVASTATIN],Km,OATP1B1,12.4 µM
COCc1c(C(C)C)nc(C(C)C)c(/C=C/[C@@H](O)C[C@@H](O)CC(=O)O)c1-c1ccc(F)cc1 [CERIVASTATIN],Activity,[1],substrate [(+)]
B1,Km,[2],85.7 µM
